Data published in US20120128650A1, “EXTENDED ACTING OXYGEN GENERATING COMPOSITION FOR TREATING MICROBIAL INFECTIONS” (DEC INTERNATIONAL NZ LIMITED, priority 2009, published 2012).

Experiments:
Staphylococcus aureus = experiment: Growth of Staphylococcus aureus in mastitic milk, colony counts; type: cell-based; conditions: 10 micromoles per ml added at 60 minutes, oxygen-limited
Procedure: Milk was collected at the morning milking, using aseptic technique, from a quarter that had been identified as having a sub-clinical infection with a single organism. The milk was taken to the laboratory and within 2 hours of collection divided amongst sterile incubation containers. The container was either a sealed vessel that was filled so there was no head-space and could be sampled through a rubber septum (limited oxygen) or a flask with a large surface area and head space, incubated in a shaking incubator (oxygenated). Because milk is aerated during collection and handling the samples should have the same oxygen content at the start of incubation. The growth rate was determined by sampling at regular intervals, diluting into recovery diluent, plating and counting the number of colonies.

[1] = pH, oxygen and peroxide analysis after addition of coated sodium percarbonate to milk; type: physicochemical
Procedure: Sodium percarbonate coated with ethyl cellulose was added to 20 mL pasteurized and homogenized milk. The pH value (by pH Meter), the concentration of oxygen (by potentiometric electrode) and peroxide (by chemical test strips) were measured at interval sampling time, as shown in FIG. 4A-C.

With `OO` [Hydrogen peroxide] the “number of viable organisms” value (Staphylococcus aureus; after 4 hours, from around 3000 cfu per ml at 60 minutes) was 20 cfu per ml and the “number of viable organisms” value (Staphylococcus aureus; at 10 hours and thereafter) was “no detectable organisms”.
In the case of `O=C([O-])[O-].O=C([O-])[O-].OO.OO.OO.[Na+].[Na+].[Na+].[Na+]` [sodium percarbonate], the “amount required to deliver 30 mg peroxide” value [1] was 70 to 100 mg.
